Results taken from publication PMC5218480 (PLoS ONE, 2017).

Test system: MV-4-11 cells
Assay: Gene expression microarray analysis (Affymetrix PrimeView) and GSEA
Type: cell-based, human
Design: RFU PODN (11730768_x_at) / Fold change /veh PODN (11730768_x_at) / RFU LINC00158 (11744669_a_at) / Fold change /veh LINC00158 (11744669_a_at) / RFU DUSP10 (11751237_a_at) / Fold change /veh DUSP10 (11751237_a_at) / RFU ID3 (11757404_x_at) / Fold change /veh ID3 (11757404_x_at) / RFU PLEKHG5 (11737974_s_at) / Fold change /veh PLEKHG5 (11737974_s_at) / RFU LRRC4B (11730491_at) / Fold change /veh LRRC4B (11730491_at) / RFU GIMAP4 (11747438_a_at) / Fold change /veh GIMAP4 (11747438_a_at) / RFU KRT8 (11758183_x_at) / Fold change /veh KRT8 (11758183_x_at) / RFU CNN1 (11734310_a_at) / Fold change /veh CNN1 (11734310_a_at) / RFU VPS37D (11726825_at) / Fold change /veh VPS37D (11726825_at) / RFU C10orf10 (11716522_x_at) / Fold change /veh C10orf10 (11716522_x_at) / RFU KIR2DL2 /// KIR2DL4 /// KIR2DL5A /// KIR2DL5B /// KIR2DS1 /// KIR2DS2 /// KIR2DS3 /// KIR2DS4 /// KIR3DL3 /// KIR3DL3 /// KIR3DS1 (11738374_at) / Fold change /veh KIR2DL2 /// KIR2DL4 /// KIR2DL5A /// KIR2DL5B /// KIR2DS1 /// KIR2DS2 /// KIR2DS3 /// KIR2DS4 /// KIR3DL3 /// KIR3DL3 /// KIR3DS1 (11738374_at) / RFU C1QL1 (11718748_at) / Fold change /veh C1QL1 (11718748_at) / RFU TMPRSS4 (11747572_a_at) / Fold change /veh TMPRSS4 (11747572_a_at) / RFU HAMP (11756126_x_at) / Fold change /veh HAMP (11756126_x_at) / RFU RNFT2 (11725882_a_at) / Fold change /veh RNFT2 (11725882_a_at) / RFU NR4A2 (11747474_a_at) / Fold change /veh NR4A2 (11747474_a_at) / RFU ABCC12 (11746883_a_at) / Fold change /veh ABCC12 (11746883_a_at) / RFU TMEM136 (11760407_x_at) / Fold change /veh TMEM136 (11760407_x_at) / RFU CLDN22 /// WWC2 (11732394_at) / Fold change /veh CLDN22 /// WWC2 (11732394_at) / RFU HLA-DPB1 (11760878_x_at) / Fold change /veh HLA-DPB1 (11760878_x_at) / RFU SPINT1 (11716480_a_at) / Fold change /veh SPINT1 (11716480_a_at) / RFU GAP43 (11754022_s_at) / Fold change /veh GAP43 (11754022_s_at) / RFU A4GNT (11735810_at) / Fold change /veh A4GNT (11735810_at) / RFU PRB3 (11715151_x_at) / Fold change /veh PRB3 (11715151_x_at) / RFU TUBB4B (11761932_at) / Fold change /veh TUBB4B (11761932_at) / RFU CAPN14 (11732068_a_at) / Fold change /veh CAPN14 (11732068_a_at) / RFU TMCC2 (11721928_a_at) / Fold change /veh TMCC2 (11721928_a_at) / RFU IRGQ (11745062_a_at) / Fold change /veh IRGQ (11745062_a_at) / RFU FAM174B (11720279_a_at) / Fold change /veh FAM174B (11720279_a_at) / RFU TMPRSS4 (11748680_a_at) / Fold change /veh TMPRSS4 (11748680_a_at) / RFU FAM212B (11763350_a_at) / Fold change /veh FAM212B (11763350_a_at) / RFU PLEKHG5 (11743358_a_at) / Fold change /veh PLEKHG5 (11743358_a_at) / RFU ZSCAN30 (11745921_a_at) / Fold change /veh ZSCAN30 (11745921_a_at) / RFU CMKLR1 (11741424_a_at) / Fold change /veh CMKLR1 (11741424_a_at) / RFU LOC101060620 /// MAPK8IP1 (11723275_at) / Fold change /veh LOC101060620 /// MAPK8IP1 (11723275_at) / RFU SPTSSB (11747773_x_at) / Fold change /veh SPTSSB (11747773_x_at) / RFU PRSS12 (11739890_at) / Fold change /veh PRSS12 (11739890_at) / RFU BIN1 (11741810_x_at) / Fold change /veh BIN1 (11741810_x_at) / RFU WNT11 (11732464_a_at) / Fold change /veh WNT11 (11732464_a_at) / RFU C10orf10 (11716521_a_at) / Fold change /veh C10orf10 (11716521_a_at) / RFU C5orf56 (11738089_at) / Fold change /veh C5orf56 (11738089_at) / RFU CYB561 (11721691_x_at) / Fold change /veh CYB561 (11721691_x_at) / RFU ANKRD19P (11752326_a_at) / Fold change /veh ANKRD19P (11752326_a_at) / RFU OR2T12 /// OR2T33 /// OR2T8 (11738714_s_at) / Fold change /veh OR2T12 /// OR2T33 /// OR2T8 (11738714_s_at) / RFU VCAN (11748164_a_at) / Fold change /veh VCAN (11748164_a_at) / RFU JSRP1 (11732532_at) / Fold change /veh JSRP1 (11732532_at) / RFU KRTAP10-11 (11738290_x_at) / Fold change /veh KRTAP10-11 (11738290_x_at) / RFU MYO3A (11730013_a_at) / Fold change /veh MYO3A (11730013_a_at) / RFU EBF3 (11725865_a_at) / Fold change /veh EBF3 (11725865_a_at) / RFU CAMK2N1 (11719241_x_at) / Fold change /veh CAMK2N1 (11719241_x_at) / RFU C5orf56 (11738088_a_at) / Fold change /veh C5orf56 (11738088_a_at) / RFU OLFML3 (11715873_a_at) / Fold change /veh OLFML3 (11715873_a_at) / RFU LOC100653217 /// NTM (11731650_a_at) / Fold change /veh LOC100653217 /// NTM (11731650_a_at) / RFU MAPK11 (11762145_a_at) / Fold change /veh MAPK11 (11762145_a_at) / RFU FIZ1 (11724087_x_at) / Fold change /veh FIZ1 (11724087_x_at) / RFU OASL (11726364_x_at) / Fold change /veh OASL (11726364_x_at) / RFU SOX15 (11748057_x_at) / Fold change /veh SOX15 (11748057_x_at) / RFU CD79A (11719716_a_at) / Fold change /veh CD79A (11719716_a_at) / RFU HIST1H1D (11736915_at) / Fold change /veh HIST1H1D (11736915_at) / RFU CASKIN2 (11723855_a_at) / Fold change /veh CASKIN2 (11723855_a_at) / RFU LOC730098 (11760151_x_at) / Fold change /veh LOC730098 (11760151_x_at) / RFU OR4N2 (11742367_at) / Fold change /veh OR4N2 (11742367_at) / RFU PRRT2 (11749266_a_at) / Fold change /veh PRRT2 (11749266_a_at) / RFU SNX32 (11753110_a_at) / Fold change /veh SNX32 (11753110_a_at) / RFU CDHR5 (11726645_a_at) / Fold change /veh CDHR5 (11726645_a_at) / RFU RCAN1 (11760418_a_at) / Fold change /veh RCAN1 (11760418_a_at) / RFU FAM167A (11723789_a_at) / Fold change /veh FAM167A (11723789_a_at) / RFU FAM26E (11764081_at) / Fold change /veh FAM26E (11764081_at) / RFU ISYNA1 (11749810_s_at) / Fold change /veh ISYNA1 (11749810_s_at) / RFU ACY1 (11761880_at) / Fold change /veh ACY1 (11761880_at) / RFU 11764098_at / Fold change /veh 11764098_at / RFU SAMD14 (11745864_x_at) / Fold change /veh SAMD14 (11745864_x_at) / RFU NPB (11741838_a_at) / Fold change /veh NPB (11741838_a_at) / RFU TMPRSS6 (11731388_a_at) / Fold change /veh TMPRSS6 (11731388_a_at) / RFU KRTAP10-2 (11738614_at) / Fold change /veh KRTAP10-2 (11738614_at) / RFU ARHGAP8 /// PRR5-ARHGAP8 (11727945_x_at) / Fold change /veh ARHGAP8 /// PRR5-ARHGAP8 (11727945_x_at) / RFU KRTAP5-7 /// NADSYN1 (11734609_at) / Fold change /veh KRTAP5-7 /// NADSYN1 (11734609_at) / RFU RASL12 (11751679_a_at) / Fold change /veh RASL12 (11751679_a_at) / RFU CDKN2B (11736163_a_at) / Fold change /veh CDKN2B (11736163_a_at) / RFU PRF1 (11729649_at) / Fold change /veh PRF1 (11729649_at) / RFU, ZNF638 /// ZNF638-IT1 / Fold change vs veh, ZNF638 /// ZNF638-IT1 / RFU, PANK3 / Fold change vs veh, PANK3 / RFU, SH3YL1 / Fold change vs veh, SH3YL1 / RFU, ZEB2 / Fold change vs veh, ZEB2 / RFU, NRIP1 / Fold change vs veh, NRIP1 / RFU, PTTG1IP / Fold change vs veh, PTTG1IP / RFU, CAPN2 / Fold change vs veh, CAPN2 / RFU, MED14 / Fold change vs veh, MED14 / RFU, SNORA58 / Fold change vs veh, SNORA58 / RFU, C1orf63 / Fold change vs veh, C1orf63 / RFU, LRRFIP1 / Fold change vs veh, LRRFIP1 / RFU, NDUFAF7 / Fold change vs veh, NDUFAF7 / RFU, SLC12A2 / Fold change vs veh, SLC12A2 / RFU, IBTK / Fold change vs veh, IBTK / RFU, ESF1 / Fold change vs veh, ESF1 / Fold change vs veh, TMEM50B / RFU, TAOK1 / Fold change vs veh, TAOK1 / RFU, ACBD3 / Fold change vs veh, ACBD3 / RFU, TMA16 / Fold change vs veh, TMA16 / RFU, RWDD3 / Fold change vs veh, RWDD3 / RFU, BCAT1 / Fold change vs veh, BCAT1 / RFU, EDEM3 / Fold change vs veh, EDEM3 / RFU, TMEM33 / Fold change vs veh, TMEM33 / RFU, WDR75 / Fold change vs veh, WDR75 / RFU, AHCTF1 / Fold change vs veh, AHCTF1 / RFU, TFRC / Fold change vs veh, TFRC / RFU, ZDHHC17 / Fold change vs veh, ZDHHC17 / RFU, NOM1 / Fold change vs veh, NOM1 / RFU, ARL8B / Fold change vs veh, ARL8B / RFU, ZBTB11 / Fold change vs veh, ZBTB11 / RFU, TAMM41 / Fold change vs veh, TAMM41 / RFU, KIAA1704 /// LOC100996395 / Fold change vs veh, KIAA1704 /// LOC100996395 / RFU, ING1 / Fold change vs veh, ING1 / RFU, TRMT61B / Fold change vs veh, TRMT61B / RFU, FUBP3 / Fold change vs veh, FUBP3 / RFU, TP53 / Fold change vs veh, TP53 / RFU, TNKS2 / Fold change vs veh, TNKS2 / RFU, ZFP14 / Fold change vs veh, ZFP14 / RFU, ACTR2 / Fold change vs veh, ACTR2 / RFU, PPP3R1 / Fold change vs veh, PPP3R1 / RFU, PIK3R1 / Fold change vs veh, PIK3R1 / RFU, HNRNPA1 / Fold change vs veh, HNRNPA1 / RFU, RNF170 / Fold change vs veh, RNF170 / RFU, ZNF28 / Fold change vs veh, ZNF28 / RFU, RNGTT / Fold change vs veh, RNGTT / RFU, OGT / Fold change vs veh, OGT / RFU, BRD1 / Fold change vs veh, BRD1 / RFU, MARS / Fold change vs veh, MARS / RFU, ZNF655 / Fold change vs veh, ZNF655 / RFU, FAHD1 / Fold change vs veh, FAHD1 / RFU, BDP1 / Fold change vs veh, BDP1 / RFU, LRRCC1 / Fold change vs veh, LRRCC1 / RFU, ARID1A / Fold change vs veh, ARID1A / RFU, ZNF146 / Fold change vs veh, ZNF146 / RFU, ZNF330 / Fold change vs veh, ZNF330 / RFU, GPN3 / Fold change vs veh, GPN3 / RFU, C9orf123 / Fold change vs veh, C9orf123 / RFU, N4BP2L2 / Fold change vs veh, N4BP2L2 / RFU, ARFIP1 / Fold change vs veh, ARFIP1 / RFU, FAM179B / Fold change vs veh, FAM179B / RFU, BCL10 / Fold change vs veh, BCL10 / RFU, UHRF1BP1L / Fold change vs veh, UHRF1BP1L / RFU, BET1 / Fold change vs veh, BET1 / RFU, CNOT2 / Fold change vs veh, CNOT2 / RFU, ZNF268 / Fold change vs veh, ZNF268 / Fold change vs veh, ZNF507 / RFU, DGCR2 / Fold change vs veh, DGCR2 / RFU, WDSUB1 / Fold change vs veh, WDSUB1 / Fold change vs veh, HSP90B1 /// MIR3652 / RFU, ADSS / Fold change vs veh, ADSS / RFU, GK / Fold change vs veh, GK / RFU, ZNF148 / Fold change vs veh, ZNF148 / RFU, TAF9 / Fold change vs veh, TAF9 / RFU, SLC1A5 / Fold change vs veh, SLC1A5 / RFU, SLMO2 / Fold change vs veh, SLMO2 / RFU, ABCC4 / Fold change vs veh, ABCC4 / RFU, LOC101060439 /// RAP1B / Fold change vs veh, LOC101060439 /// RAP1B / RFU, RFX7 / Fold change vs veh, RFX7 / RFU, GTPBP10 / Fold change vs veh, GTPBP10 / RFU, CNEP1R1 / Fold change vs veh, CNEP1R1 / RFU, BIVM-ERCC5 /// ERCC5 / Fold change vs veh, BIVM-ERCC5 /// ERCC5 / RFU, ILF3 / Fold change vs veh, ILF3 / RFU 11762660_at / Fold change /veh 11762660_at / RFU VCAN (11757783_s_at) / Fold change /veh VCAN (11757783_s_at) / RFU DDX43 (11728927_at) / Fold change /veh DDX43 (11728927_at) / RFU KRT8 (11758188_x_at) / Fold change /veh KRT8 (11758188_x_at) / RFU NKD1 (11759106_at) / Fold change /veh NKD1 (11759106_at) / RFU SRD5A1 (11742802_a_at) / Fold change /veh SRD5A1 (11742802_a_at) / RFU TPSAB1 /// TPSB2 (11721975_s_at) / Fold change /veh TPSAB1 /// TPSB2 (11721975_s_at) / RFU GSTM3 (11746129_a_at) / Fold change /veh GSTM3 (11746129_a_at) / RFU IL23R (11737362_x_at) / Fold change /veh IL23R (11737362_x_at) / RFU TMEM51 (11727254_a_at) / Fold change /veh TMEM51 (11727254_a_at) / RFU PIWIL2 (11732686_x_at) / Fold change /veh PIWIL2 (11732686_x_at) / RFU ORM1 (11744905_x_at) / Fold change /veh ORM1 (11744905_x_at) / RFU CCDC152 (11743942_at) / Fold change /veh CCDC152 (11743942_at) / RFU ECM1 (11717891_a_at) / Fold change /veh ECM1 (11717891_a_at) / RFU IL23R (11748794_a_at) / Fold change /veh IL23R (11748794_a_at) / RFU TNFAIP8L3 (11732012_x_at) / Fold change /veh TNFAIP8L3 (11732012_x_at) / RFU MBOAT4 (11741988_at) / Fold change /veh MBOAT4 (11741988_at) / RFU 11764193_at / Fold change /veh 11764193_at / RFU TMEM53 (11763286_at) / Fold change /veh TMEM53 (11763286_at) / RFU MAGEB2 (11727129_at) / Fold change /veh MAGEB2 (11727129_at) / RFU TMEM200A (11744735_a_at) / Fold change /veh TMEM200A (11744735_a_at) / RFU CCDC152 (11751479_a_at) / Fold change /veh CCDC152 (11751479_a_at) / RFU FAM211A (11726209_a_at) / Fold change /veh FAM211A (11726209_a_at) / RFU RGS16 (11746705_a_at) / Fold change /veh RGS16 (11746705_a_at) / RFU VCAN (11755009_s_at) / Fold change /veh VCAN (11755009_s_at) / RFU RHOB (11743442_s_at) / Fold change /veh RHOB (11743442_s_at) / RFU RGS16 (11720943_a_at) / Fold change /veh RGS16 (11720943_a_at) / RFU RGS16 (11720944_at) / Fold change /veh RGS16 (11720944_at) / RFU, VPS4B / Fold change vs veh, VPS4B / RFU, CREB1 / Fold change vs veh, CREB1 / RFU, DNAJC13 / Fold change vs veh, DNAJC13 / RFU, GNAQ / Fold change vs veh, GNAQ / RFU, CDK5R1 / Fold change vs veh, CDK5R1 / RFU, ZRANB3 / Fold change vs veh, ZRANB3 / RFU, CUL4A / Fold change vs veh, CUL4A / RFU, CCNY / Fold change vs veh, CCNY / RFU, UFL1 / Fold change vs veh, UFL1 / RFU, COG3 / Fold change vs veh, COG3 / RFU, DIAPH2 / Fold change vs veh, DIAPH2 / RFU, SKA2 / Fold change vs veh, SKA2 / RFU, AFF3 / Fold change vs veh, AFF3 / RFU, LMF1 / Fold change vs veh, LMF1 / RFU, IPO11 / Fold change vs veh, IPO11 / RFU, DFFB / Fold change vs veh, DFFB / RFU, FOXP1 / Fold change vs veh, FOXP1 / RFU, CARD8 / Fold change vs veh, CARD8 / RFU, STRN3 / Fold change vs veh, STRN3 / RFU, ADK / Fold change vs veh, ADK / RFU, RASSF2 / Fold change vs veh, RASSF2 / RFU, WIPF1 / Fold change vs veh, WIPF1 / RFU, LARP1B / Fold change vs veh, LARP1B / RFU, RASA1 / Fold change vs veh, RASA1 / RFU, RB1 / Fold change vs veh, RB1 / RFU, PPFIA1 / Fold change vs veh, PPFIA1 / RFU, MAT2A / Fold change vs veh, MAT2A / RFU, CCT5 / Fold change vs veh, CCT5 / RFU, WDR92 / Fold change vs veh, WDR92 / RFU, CUX1 / Fold change vs veh, CUX1 / RFU, TTC7A / Fold change vs veh, TTC7A / RFU, TMEM135 / Fold change vs veh, TMEM135 / RFU, DEPTOR / Fold change vs veh, DEPTOR / RFU, CPM / Fold change vs veh, CPM / RFU, DNAJB6 / Fold change vs veh, DNAJB6 / RFU, CACNA2D3 / Fold change vs veh, CACNA2D3 / RFU, DTX4 / Fold change vs veh, DTX4 / RFU, TFCP2 / Fold change vs veh, TFCP2 / RFU, GMCL1 /// GMCL1P1 / Fold change vs veh, GMCL1 /// GMCL1P1 / RFU, AEBP2 / Fold change vs veh, AEBP2 / RFU, SNHG1 /// SNORD22 /// SNORD25 /// SNORD26 /// SNORD27 /// SNORD28 /// SNORD29 /// SNORD31 / Fold change vs veh, SNHG1 /// SNORD22 /// SNORD25 /// SNORD26 /// SNORD27 /// SNORD28 /// SNORD29 /// SNORD31 / Fold change (Aza/veh), C12orf56 (ProbeSet 11735607_a_at) / Fold change (ACY-1035/veh), C12orf56 (ProbeSet 11735607_a_at) / Fold change (Aza/veh), FGFR1OP (ProbeSet 11751329_s_at) / Fold change (ACY-1035/veh), FGFR1OP (ProbeSet 11751329_s_at) / Fold change (Aza/veh), VPS36 (ProbeSet 11739960_a_at) / Fold change (ACY-1035/veh), VPS36 (ProbeSet 11739960_a_at) / RFU SYPL1 (11715823_x_at) / Fold change /veh SYPL1 (11715823_x_at) / RFU IGFBP7 (11715501_s_at) / Fold change /veh IGFBP7 (11715501_s_at) / RFU REEP3 (11722064_at) / Fold change /veh REEP3 (11722064_at) / RFU IGLL1 (11728026_x_at) / Fold change /veh IGLL1 (11728026_x_at): dose or concentration left out as unconfirmed
Settings: MV-4-11 cells, 48 hours

Nc1ccc(-c2cccs2)cc1NC(=O)c1ccc2c(c1)cc(C1CC1)n2CCN1CCOCC1 [ACY-1035]
Fold change /veh TMPRSS4 (11747572_a_at): 1.09
